Measurements published in PubChem BioAssay AID724 (NMMLSC, 2007).
Activity calls are given as the source filed them. The rule behind the calls is not given here.

Molecular target: fMet-Leu-Phe receptor (Homo sapiens) (UniProt P21462)
Test: human FPR1 ligand displacement potency – cell-based, flow cytometry, Ki from IC50, dose response (AID 724)
Conditions: FPR1-expressing cells, fluorescent ligand binding competition; for IC50: measured here: IC50 of ligand binding inhibition

Sequence of fMet-Leu-Phe receptor (Homo sapiens) (P21462 whole entry, looked up): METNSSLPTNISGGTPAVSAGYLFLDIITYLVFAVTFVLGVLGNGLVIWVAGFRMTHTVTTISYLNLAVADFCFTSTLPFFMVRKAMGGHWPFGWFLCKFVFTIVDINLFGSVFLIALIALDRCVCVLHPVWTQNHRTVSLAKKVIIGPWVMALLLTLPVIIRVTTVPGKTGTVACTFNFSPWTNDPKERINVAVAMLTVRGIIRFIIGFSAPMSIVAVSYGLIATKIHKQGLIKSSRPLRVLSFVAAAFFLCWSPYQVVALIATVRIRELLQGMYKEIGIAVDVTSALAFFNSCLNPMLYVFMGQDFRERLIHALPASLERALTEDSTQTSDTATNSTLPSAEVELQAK

| IC50 | Ki | SMILES |
| --- | --- | --- |
| 1.7 µM |  | O=C(Oc1ccc2c(=O)c(-c3ccccc3Cl)c(C(F)(F)F)oc2c1)c1cccs1 |
|  | > 44.3 µM (inactive) | O=C(C1=C(O)C(=O)N(CCCN2CCOCC2)C1c1cccnc1)c1cc2ccccc2o1 (stereo not given) |
|  | > 44.3 µM (inactive) | COc1cc(C2C(C(C)=O)=C(O)C(=O)N2c2ccc(Br)cc2)ccc1O (stereo not given) |
|  | > 44.3 µM (inactive) | COc1cc(C2C(C(=O)c3cc4ccccc4o3)=C(O)C(=O)N2CCN(C)C)ccc1O (stereo not given) |
| 59.7 µM | inactive | COc1ccc(C2/C(=C(\O)c3ccc(C)cc3)C(=O)C(=O)N2Cc2cccnc2)c(OC)c1 (stereo not given) |
| 3.8 µM |  | Cc1nc2c(-c3ccc(Cl)cc3)c(C(F)(F)F)[nH]n2c(=O)c1Cc1ccccc1 |
| 50.5 µM | inactive | COCCCN1C(=O)C(=O)/C(=C(/O)c2ccccc2)C1c1ccc(O)c(OC)c1 (stereo not given) |
| 0.5 µM |  | CCc1cc2c(=O)c(-c3nc4ccccc4n3C)c(C)oc2cc1OC(C)=O |
|  | > 44.3 µM (inactive) | O=C(O)CCCN1C(=O)C(=O)/C(=C(/O)c2ccccc2)C1/C=C/c1ccccc1 (stereo not given) |
| 9.8 µM | 6.4 µM | COc1ccc(C2C(C(=O)c3ccco3)=C(O)C(=O)N2CCN2CCOCC2)c(OC)c1 (stereo not given) |
| 5.2 µM | 3.4 µM | COc1ccc(C2/C(=C(\O)c3ccccc3)C(=O)C(=O)N2CCCn2ccnc2)c(OC)c1 (stereo not given) |
| 47.5 µM | inactive | COc1ccc(C2/C(=C(\O)c3ccccc3)C(=O)C(=O)N2c2cccc(Cl)c2)c(OC)c1 (stereo not given) |
|  | > 44.3 µM (inactive) | O=C1NC(c2ccc(Br)cc2)/C(=C(\O)c2ccc(Cl)cc2)C1=O (stereo not given) |
| 17.2 µM | inactive | CC(=O)C1=C(O)C(=O)N(CCc2c(C)[nH]c3ccccc23)C1c1cccc(F)c1 (stereo not given) |
| 10.6 µM | 6.9 µM | O=C(C1=C(O)C(=O)N(CCc2ccccc2)C1c1ccc(Cl)cc1)c1cccs1 (stereo not given) |
|  | > 44.3 µM (inactive) | O=C1C(=O)N(c2ccc(F)cc2)C(c2ccc(Br)cc2)/C1=C(/O)c1ccccc1 (stereo not given) |
| 50.7 µM | inactive | CC(C)c1ccc(C2/C(=C(\O)c3ccccc3)C(=O)C(=O)N2Cc2cccnc2)cc1 (stereo not given) |
| 7.1 µM | 4.7 µM | COc1ccc(C2C(C(=O)c3cccs3)=C(O)C(=O)N2CCCn2ccnc2)cc1 (stereo not given) |
|  | > 44.3 µM (inactive) | Cc1ccc(N2C(=O)C(=O)/C(=C(\O)c3ccccc3)C2c2cccc(F)c2)cc1Br (stereo not given) |
|  | > 44.3 µM (inactive) | COc1ccc(C2C(C(=O)c3cc4ccccc4o3)=C(O)C(=O)N2CCN(C)C)cc1OC (stereo not given) |

| IC50 | Ki | SMILES |
| --- | --- | --- |
|  | > 44.3 µM (inactive) | O=C(C1=C(O)C(=O)N(CCCn2ccnc2)C1c1cccnc1)c1ccco1 (stereo not given) |
|  | > 44.3 µM (inactive) | Cc1ccc(/C(O)=C2\C(=O)C(=O)N(c3nnc(C)s3)C2c2ccc(C(C)C)cc2)cc1 (stereo not given) |
| 25.7 µM | inactive | COc1ccc(OC)c(C2/C(=C(\O)c3ccccc3)C(=O)C(=O)N2c2ccc(C)c(Cl)c2)c1 (stereo not given) |
| 7.2 µM | 4.7 µM | CCCCCCN1C(=O)C(=O)/C(=C(\O)c2ccccc2)C1c1ccc(O)c(OC)c1 (stereo not given) |
|  | > 44.3 µM (inactive) | O=C(C1=C(O)C(=O)N(CCCn2ccnc2)C1c1cccnc1)c1cc2ccccc2o1 (stereo not given) |
| 31.1 µM | inactive | COCCCN1C(=O)C(=O)/C(=C(/O)c2ccccc2)C1c1ccc(C(C)C)cc1 (stereo not given) |
| 4.4 µM | 2.9 µM | COc1ccc(C2C(C(=O)c3cccs3)=C(O)C(=O)N2CCN2CCOCC2)c(OC)c1 (stereo not given) |
|  | > 44.3 µM (inactive) | N#Cc1c(N/C(=C\C(=O)c2ccccc2)C(=O)O)sc2c1CCC2 |
|  | > 44.3 µM (inactive) | COc1ccc(C2C(C(=O)c3ccco3)=C(O)C(=O)N2CCCN2CCOCC2)cc1OC (stereo not given) |
| 2.8 µM | 1.8 µM | COCCN1C(=O)C(=O)/C(=C(/O)c2ccccc2)C1c1cc(OC)ccc1OC (stereo not given) |
| 5 µM |  | COc1ccc(-c2c(C(F)(F)F)oc3cc(OC(=O)c4ccco4)ccc3c2=O)cc1OC |
|  | > 44.3 µM (inactive) | CCCCCCOc1cccc(N2C(=O)C(=O)/C(=C(\O)c3ccccc3)C2c2cccc(F)c2)c1 (stereo not given) |
|  | > 44.3 µM (inactive) | COc1ccc(/C(O)=C2/C(=O)C(=O)NC2c2ccc(OC)cc2OC)cc1 (stereo not given) |
|  | > 44.3 µM (inactive) | COc1ccc(/C(O)=C2/C(=O)C(=O)N(CCc3c[nH]c4ccccc34)C2c2ccc(C(C)C)cc2)cc1 (stereo not given) |
| 13.6 µM |  | COc1ccc(-c2c(C(F)(F)F)oc3cc(OC(=O)c4cccnc4)ccc3c2=O)cc1OC |
| 9.2 µM | 6 µM | COc1ccc(OC)c(C2/C(=C(\O)c3ccccc3)C(=O)C(=O)N2c2cccnc2)c1 (stereo not given) |
| 1.7 µM |  | COc1ccccc1-c1c(C(F)(F)F)oc2cc(OC(=O)c3ccco3)ccc2c1=O |
|  | > 44.3 µM (inactive) | Cc1ccc(/C(O)=C2\C(=O)C(=O)N(Cc3cccnc3)C2c2ccc(Br)cc2)cc1 (stereo not given) |
|  | > 44.3 µM (inactive) | COc1ccc(OC)c(C2/C(=C(\O)c3ccc(C)cc3)C(=O)C(=O)N2CCC(=O)O)c1 (stereo not given) |
|  | > 44.3 µM (inactive) | O=C1C(=O)N(CN2CCOCC2)C(c2ccc(Br)cc2)/C1=C(\O)c1ccccc1 (stereo not given) |
